Results as given in publication PMC6270778, “Novel Cinnamic Acid Derivatives as Antioxidant and Anticancer Agents: Design, Synthesis and Modeling Studies” (Molecules, 2014).

Legend:
HT-29 (colon) = assay: SRB cytotoxicity assay, HT-29; assay type: cell-based; settings: Homo sapiens, 50% growth inhibition, 48 h exposure
Method: (§1) Human cancer cell lines used as targets were HT-29 (colon), A-549 (lung), OAW-42 (ovarian), MDA-MB-231 (breast), HeLa (immortal cells from cervical cancer). All cells were obtained from the American Type Culture Collection (ATCC). Cells were routinely grown as monolayer cell cultures in T-75 flasks (Costar) in an atmosphere containing 5% CO2 in air and 100% relative humidity at 37 °C and subcultured twice a week, restricting the total number of cell passages below 20. The culture medium used was Dulbecco’s modified Eagle’s medium (DMEM, Gibco, Grand Island, NY, USA) supplemented with 10% fetal bovine serum (Gibco), 2 mM glutamine (Sigma), 100 μg/mL streptomycin and 100 IU/mL penicillin.
(§2) Cell passages were carried out by detaching adherent, logarithmically growing cells after addition of 2–3 mL of a mixture of 0.05% solution of trypsin (Gibco, 1:250) in phosphate-buffered saline (PBS) with 0.02% EDTA and incubation for 3–5 min at 37 °C. For the experiments, cells were plated (100 μL containing 10,000 cells/well) in 96-well flat-bottom microplates microplates (Costar-Corning, Acton, MA 01720, USA) so that untreated cells were in exponential growth phase at the time of cytotoxicity evaluation. Cells were left for 24 h at 37 °C to resume exponential growth and stabilization and afterwards exposed to tested agents for 48 h by the addition of an equal volume (100 μL) of either complete culture medium (control wells), or twice the final drug concentrations diluted in complete culture medium (test wells). Drug cytotoxicity was measured by means of the SRB colorimetric assay estimating the survival fractions (SF) as the percent of control (untreated cells) absorbance. The SRB assay was carried out as previously described and modified by our group. In brief, culture medium was aspirated prior to fixation using a microplate-multiwash device (Tri-Continent Scientific, Inc., Grass Valley, CA, USA) and 50 μL of 10% cold (4 °C) trichloroacetic acid (TCA) were gently added to the wells. Microplates were left for 30 min at 4 °C, washed five times with deionized water and left to dry at room temperature for at least 24 h. Subsequently, 70 μL of 0.4% (w/v) sulforhodamine B (Sigma) in 1% acetic acid solution were added to each well and left at room temperature for 20 min. SRB was removed and the plates were washed five times with 1% acetic acid before air drying. Bound SRB was solubilized with 200 μL of 10 mM unbuffered Tris-base solution and plates were left on a plate shaker for at least 10 min. Absorbance was read in a 96-well plate reader at 492 nm subtracting the background measurement at 620 nm. The test optical density (OD) value was defined as the absorbance of each individual well, minus the blank value (“blank” is the mean optical density of the background control wells, n = 8). Mean values and the coefficient of variation (CV) from six replicate wells were calculated automatically. Results were expressed as the “survival fraction” (SF), as shown below.
(§3) For each tested compound a dose-effect curve was produced. Sextuplicate determinations gave a CV (Standard Deviation/mean %) of much less than 10%, resulting in standard error (SE) which was very low in all cases. The data showing inhibition of cellular growth are expressed as the fraction of cells that remains unaffected (fu) (survival fraction, SF), which is derived from the following equation: fu = ODx/ODc where ODx and ODc represent the test and the control optical density, respectively.

[1] = Hydroxyl radicals scavenging activity (Fe3+/ascorbic acid system, competition with DMSO); settings: 0.1 mM; no = no action under the used experimental conditions
Method: Thus we evaluated our acids for their competition with DMSO for ˙OH radicals was measured, hydroxyl radicals were produced by the Fe^3+/ascorbic acid system and expressed as percent inhibition of formaldehyde formation at 0.1 mM concentration (Table 3).
The hydroxyl radicals were produced by the Fe ^3+/ascorbic acid system. EDTA (0.1 mM), Fe ^3+ (167 μM), DMSO (33 mM) in phosphate buffer (50 mM, pH 7.4), the tested compounds (0.1 mM) and ascorbic acid (10 mM) were mixed in test tubes. The solutions were incubated at 37 °C for 30 min. The reaction was stopped by CCl3COOH (17% w/v) (Table 4) and the % scavenging activity of the tested compounds for hydroxyl radicals was given.

[2] = Interaction with the stable radical DPPH
Method: The novel acids were studied for the antioxidant activity by the use of the sTable 2,2-diphenyl-1-picrylhydrazyl radical (DPPH) at concentrations 0.05 and 0.1 mM after 20 and 60 min (Table 2). In the DPPH assay, the dominant chemical reaction involved is the reduction of the DPPH radical by single electron transfer SET from the antioxidant. Phenolic compounds eg. […] The compounds presented reducing abilities which ranged nearly 29% (4ii), small differences were found among the compounds with time and concentration. […] Due to steric reasons the interaction of DPPH with the tested compounds is low.
To a solution of DPPH in absolute ethanol the appropriate volume of the compounds (0.05 and 0.1 mM final concentrations) dissolved in DMSO was added. The absorbance was recorded at 517 nm after 20 and 60 min at room temperature (Table 3).

OAW-42 (ovarian) = assay: SRB cytotoxicity assay, OAW-42; assay type: cell-based; settings: Homo sapiens, 50% growth inhibition, 48 h exposure
Method: as §1, §2, §3

MDA-MB-231 (breast) = assay: SRB cytotoxicity assay, MDA-MB-231; assay type: cell-based; settings: Homo sapiens, 50% growth inhibition, 48 h exposure
Method: as §1, §2, §3

[3] = Inhibition of linoleic acid peroxidation (AAPH); settings: 0.1 mM
Text: For the in vitro study of the free radical production, azo compounds generating free radicals through spontaneous thermal decomposition are used. The water soluble 2,2'-azobis(2-amidinopropane) hydrochloride (AAPH) is recommended as appropriate for measuring radical-scavenging activity in vitro. The activity of the peroxyl radicals produced by the action of AAPH greatly resembles to cellular activities such as lipid peroxidation. The phenyl substituted acids presented remarkable activity at 0.1 mM concentration (84%–92%) compared to the non-substituted derivatives (20%–63%).
For initiating the free radical, 2,2'-azobis(2-amidinopropane) dihydrochloride (AAPH) is used. The final solution in the UV cuvette consisted of ten microliters of the 16 mM linoleate sodium dispersion 0.93 mL of 0.05 M phosphate buffer, pH 7.4, thermostatted at 37 °C. 50 μL of 40 mM AAPH solution was added as a free radical initiator at 37 °C under air and 10 μL of the tested compounds. The oxidation of linoleic acid sodium salt results a conjugated diene hydroperoxide. The reaction is monitored at 234 nm (Table 3).

[4] = tested on: HeLa (immortal cells from cervical cancer); assay: SRB cytotoxicity assay, HeLa; assay type: cell-based; settings: Homo sapiens, 50% growth inhibition, 48 h exposure
Method: as §1, §2, §3

A-549 (lung) = assay: SRB cytotoxicity assay, A-549; assay type: cell-based; settings: Homo sapiens, A549, 50% growth inhibition, 48 h exposure
Method: as §1, §2, §3

Row | SMILES | IC50 (HT-29 (colon)) | HO (%) (±SD) [1] | RA % (±SD), DPPH ([2]; 0.05 mM, 20 min) | RA % (±SD), DPPH ([2]; 0.05 mM, 60 min) | RA % (±SD), DPPH ([2]; 0.1 mM, 20 min) | RA % (±SD), DPPH ([2]; 0.1 mM, 60 min) | IC50 (OAW-42 (ovarian)) | IC50 (MDA-MB-231 (breast)) | AAPH (%) (±SD), inhibition of linoleic acid peroxidation [3] | IC50 [4] | IC50 (A-549 (lung))
1 | N#Cc1ccc(C=C(C(=O)O)c2ccccc2)cc1 [Compound 1i, 3-(4-Cyanophenyl)-2-phenylacrylic acid] | > 240 µM | no | 12 ± 0.3% | 14 ± 0.1% | 28 ± 0.6% | 20 ± 0.8% | > 240 µM | > 240 µM | 92 ± 1.2% | > 240 µM | > 240 µM
2 | N#Cc1ccc(C=CC(=O)O)cc1 [Compound 1ii, 3-(4-Cyanophenyl)acrylic acid] | > 240 µM | no | 13 ± 0.3% | 9 ± 0.03% | 23 ± 0.5% | 21 ± 1.0% | > 240 µM | > 240 µM | 20 ± 0.1% | > 240 µM | > 240 µM
3 | O=C(O)C(=CC=Cc1ccc([N+](=O)[O-])cc1)c1ccccc1 [Compound 2i, 5-(4-Nitrophenyl)-2-phenylpenta-2,4-dienoic acid] | 141 ± 1.8 µM | 33 ± 0.8% | 10 ± 0.04% | 11 ± 0.02% | 23 ± 0.7% | 23 ± 0.9% | 160 ± 1.1 µM | 199 ± 1.9 µM | 89 ± 0.9% | 118 ± 1.4 µM | 134 ± 1.6 µM
4 | O=C(O)C=CC=Cc1ccc([N+](=O)[O-])cc1 [Compound 2ii, 5-(4-Nitrophenyl)penta-2,4-dienoic acid] | > 240 µM | no | – | 13 ± 0.04% | 29 ± 1.0% | 24 ± 0.6% | > 240 µM | > 240 µM | 29 ± 0.7% | 240 ± 1.6 µM | > 240 µM
5 | O=C(O)C(=CC=Cc1ccccc1)c1ccccc1 [Compound 3i, 2,5-Diphenylpenta-2,4-dienoic acid] | > 240 µM | 81 ± 1.9% | 4 ± 0.02% | 3 ± 0.0% | 5 ± 0.0% | 6 ± 0.04% | > 240 µM | > 240 µM | 84 ± 1.4% | > 240 µM | > 240 µM
6 | O=C(O)C=CC=Cc1ccccc1 [Compound 3ii, 5-Phenylpenta-2,4-dienoic acid] | > 240 µM | 81 ± 1.2% | 11 ± 0.06% | 7 ± 0.0% | 20 ± 0.2% | 16 ± 0.05% | > 240 µM | > 240 µM | 30 ± 1.0% | > 240 µM | > 240 µM
7 | O=C(O)C(=CC(Br)=Cc1ccccc1)c1ccccc1 [Compound 4i, 4-Bromo-2,5-diphenylpenta-2,4-dienoic acid] | > 240 µM | no | 7 ± 0.03% | 4 ± 0.01% | 8 ± 0.03% | 5 ± 0.0% | 174 ± 1.8 µM | 250 ± 1.2 µM | 88 ± 1.8% | 80 ± 0.9 µM | 210 ± 1 µM
8 | O=C(O)C=CC(Br)=Cc1ccccc1 [Compound 4ii, 4-Bromo-5-phenylpenta-2,4-dienoic acid] | 54 ± 1.1 µM | 100 ± 1.8% | 17 ± 0.02% | 13 ± 0.05% | 30 ± 0.9% | 29 ± 0.6% | 63.5 ± 0.8 µM | 47.5 ± 0.7 µM | 63 ± 1.1% | 30 ± 0.4 µM | 173.5 ± 1.4 µM
